Patent publication US12428455B2, “Dominant negative CEBPB and CEBPD proteins and methods of use for decreasing viability of neoplastic cells” (The Trustees of Columbia University in the City of New York, priority 2018, dated 2025)

How the values were obtained:
[1] = test system: MDA-MB 231, HCT116, and A375 cells; test: Peptide treatment after doxorubicin pre-treatment, cell number; assay type: cell-based; settings: 100 nM, 24 hours
Experimental: Replicate cultures of MDA-MB 231, HCT116, and A375 cells were pretreated with 100 nM doxorubicin for 24 hours, and then treated with 1 μM, 3 μM, 10 μM, or 20 μM CP-dn-CEBPB and CP-dn-CEBPD peptides, maintained for 6 days, and then assessed for cell number. The bar graphs of FIGS. 31A (MDA-MB 231, CP-dn-CEBPB), 31C (MDA-MB 231, CP-dn-CEBPBD, 31E (HCT116, CP-dn-CEBPBD), 31G (HCT116, CP-dn-CEBPD), 31I (A375, CP-dn-CEBPBB), and 31K (A375, CP-dn-CEBPBD) show relative cell numbers for each condition as compared to untreated controls. The line graphs of FIGS. 31B (MDA-MB 231, CP-dn-CEBPB), 31D (MDA-MB 231, CP-dn-CEBPBD), 31F (HCT116, CP-dn-CEBPB), 31H (HCT116, CP-dn-CEBPD), 31J (A375, CP-dn-CEBPB), and 31L (A375, CP-dn-CEBPBD) show the response as normalized in each case so that 100 represents the relative number of surviving cells that received the indicated level of doxorubicin, but no peptide treatment.

[2] = test system: paclitaxel-resistant T98G cells; test: Cell number, paclitaxel-resistant T98G cells; assay type: cell-based; settings: 6 days; 0 μM to 50 μM peptide or 0 nM to 50 nM paclitaxel
Experimental: Replicate cultures of T98G wild type cells and paclitaxel-resistant T98G cells were treated with 0 nM to 50 nM paclitaxel or 0 μM to 50 μM CP-dn-CEBPB or CP-dn-CEBPD peptides, maintained for 6 days, and then assessed for cell number. Paclitaxel resistant T98G cells were inhibited by both CP-dn-CEBPB (FIG. 28A) and CP-dn-CEBPD (FIG. 28B), but, as expected were not inhibited by paclitaxel (FIG. 28C). This establishes that CP-dn-CEBPB and CP-dn-CEBPD may be effective against chemotherapy-resistant cells.

| SMILES | effect of doxorubicin pre-treatment on growth of the cancer cells [1] | inhibition of paclitaxel-resistant T98G cells (cell number) [2] |
| --- | --- | --- |
| COc1cccc2c1C(=O)c1c(O)c3c(c(O)c1C2=O)C[C@@](O)(C(=O)CO)C[C@@H]3O[C@H]1C[C@H](N)[C@H](O)[C@H](C)O1 [doxorubicin, reference compound] | inhibited grown of the cancer cells |  |
| CC(=O)O[C@H]1C(=O)[C@@]2(C)[C@H]([C@H](OC(=O)c3ccccc3)[C@]3(O)C[C@H](OC(=O)[C@H](O)[C@@H](NC(=O)c4ccccc4)c4ccccc4)C(C)=C1C3(C)C)[C@]1(OC(C)=O)CO[C@@H]1C[C@@H]2O [paclitaxel, reference compound] |  | not inhibited |
